From the supplement of paper PMC10132981, “Formate overflow drives toxic folate trapping in MTHFD1 inhibited cancer cells” (Nature Metabolism, 2023)

System: SW620 MTHFD2-/-
Assay: cell viability relative to vehicle (resazurin, 96 h); higher = more viable
Settings: base medium: RPMI + dialysed FBS
Procedure: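 SW620 WT or MTHFD2-/- cells were treated for 96 h with a compound dilution series (log10 M) in RPMI with normal or dialysed FBS. Viability was read by resazurin and is given as % of vehicle.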

CN(Cc1cnc2nc(N)nc(N)c2n1)c1ccc(C(=O)N[C@@H](CCC(=O)O)C(=O)O)cc1 [methotrexate]
Settings | cell viability [%]
log10 compound concentration (M): -6.95424, supplement / serum: 50 μM Thymidine | 7.71
log10 compound concentration (M): -6.95424, supplement / serum: Hypoxanthine | 7.47
log10 compound concentration (M): -6.95424, supplement / serum: Hypoxanthine+Sodium Formate | 7.62
log10 compound concentration (M): -6.95424, supplement / serum: Hypoxanthine+Sodium Formate+Thymidine | 107
log10 compound concentration (M): -6.95424, supplement / serum: No metabolite | 8.02
log10 compound concentration (M): -6.95424, supplement / serum: Sodium Formate | 7.59
log10 compound concentration (M): -6.95424, supplement / serum: Vehicle | 7.71
log10 compound concentration (M): -7.43136, supplement / serum: 50 μM Hypoxanthine | 14.5
log10 compound concentration (M): -7.43136, supplement / serum: 50 μM Thymidine | 7.18
log10 compound concentration (M): -7.43136, supplement / serum: 50 μM Thymidine + 50 μM Hypoxanthine | 95.6
log10 compound concentration (M): -7.43136, supplement / serum: Hypoxanthine | 11.5
log10 compound concentration (M): -7.43136, supplement / serum: Hypoxanthine+Sodium Formate | 11.1
log10 compound concentration (M): -7.43136, supplement / serum: Hypoxanthine+Sodium Formate+Thymidine | 98.6
log10 compound concentration (M): -7.43136, supplement / serum: No metabolite | 7.722
log10 compound concentration (M): -7.43136, supplement / serum: Sodium Formate | 7.53
log10 compound concentration (M): -7.43136, supplement / serum: Vehicle | 7.22
log10 compound concentration (M): -7.90849, supplement / serum: 50 μM Hypoxanthine | 70.7
log10 compound concentration (M): -7.90849, supplement / serum: 50 μM Thymidine | 12.3
log10 compound concentration (M): -7.90849, supplement / serum: 50 μM Thymidine + 50 μM Hypoxanthine | 106
log10 compound concentration (M): -7.90849, supplement / serum: Hypoxanthine | 54.5
log10 compound concentration (M): -7.90849, supplement / serum: Hypoxanthine+Sodium Formate | 55.4
log10 compound concentration (M): -7.90849, supplement / serum: Hypoxanthine+Sodium Formate+Thymidine | 102
log10 compound concentration (M): -7.90849, supplement / serum: No metabolite | 10.5
log10 compound concentration (M): -7.90849, supplement / serum: Sodium Formate | 11.5
log10 compound concentration (M): -7.90849, supplement / serum: Vehicle | 8.29
log10 compound concentration (M): -8.38561, supplement / serum: 50 μM Hypoxanthine | 76.3
log10 compound concentration (M): -8.38561, supplement / serum: 50 μM Thymidine | 14.7
log10 compound concentration (M): -8.38561, supplement / serum: 50 μM Thymidine + 50 μM Hypoxanthine | 102
log10 compound concentration (M): -8.38561, supplement / serum: Hypoxanthine | 74.7
log10 compound concentration (M): -8.38561, supplement / serum: Hypoxanthine+Sodium Formate | 79.4
log10 compound concentration (M): -8.38561, supplement / serum: Hypoxanthine+Sodium Formate+Thymidine | 84.7
log10 compound concentration (M): -8.38561, supplement / serum: No metabolite | 9.121
log10 compound concentration (M): -8.38561, supplement / serum: Sodium Formate | 33.1
log10 compound concentration (M): -8.38561, supplement / serum: Vehicle | 15.5
log10 compound concentration (M): -8.86273, supplement / serum: 50 μM Hypoxanthine | 92.6
log10 compound concentration (M): -8.86273, supplement / serum: 50 μM Thymidine | 66.7
log10 compound concentration (M): -8.86273, supplement / serum: 50 μM Thymidine + 50 μM Hypoxanthine | 109
log10 compound concentration (M): -8.86273, supplement / serum: Hypoxanthine | 92.5
log10 compound concentration (M): -8.86273, supplement / serum: Hypoxanthine+Sodium Formate | 97.5
log10 compound concentration (M): -8.86273, supplement / serum: Hypoxanthine+Sodium Formate+Thymidine | 91.4
log10 compound concentration (M): -8.86273, supplement / serum: No metabolite | 47.4
log10 compound concentration (M): -8.86273, supplement / serum: Sodium Formate | 72.7
log10 compound concentration (M): -8.86273, supplement / serum: Vehicle | 45.5
log10 compound concentration (M): -9.33985, supplement / serum: 50 μM Hypoxanthine | 100
log10 compound concentration (M): -9.33985, supplement / serum: 50 μM Thymidine | 87.7
log10 compound concentration (M): -9.33985, supplement / serum: 50 μM Thymidine + 50 μM Hypoxanthine | 102
log10 compound concentration (M): -9.33985, supplement / serum: Hypoxanthine | 92.7
log10 compound concentration (M): -9.33985, supplement / serum: Hypoxanthine+Sodium Formate | 96.4
log10 compound concentration (M): -9.33985, supplement / serum: Hypoxanthine+Sodium Formate+Thymidine | 98.6
log10 compound concentration (M): -9.33985, supplement / serum: No metabolite | 82.1
log10 compound concentration (M): -9.33985, supplement / serum: Sodium Formate | 101
log10 compound concentration (M): -9.33985, supplement / serum: Vehicle | 80.1
log10 compound concentration (M): -9.81697, supplement / serum: 50 μM Hypoxanthine | 95.3
log10 compound concentration (M): -9.81697, supplement / serum: 50 μM Thymidine | 109.8
log10 compound concentration (M): -9.81697, supplement / serum: 50 μM Thymidine + 50 μM Hypoxanthine | 104
log10 compound concentration (M): -9.81697, supplement / serum: Hypoxanthine | 102
log10 compound concentration (M): -9.81697, supplement / serum: Hypoxanthine+Sodium Formate | 100
log10 compound concentration (M): -9.81697, supplement / serum: Hypoxanthine+Sodium Formate+Thymidine | 98.5
log10 compound concentration (M): -9.81697, supplement / serum: No metabolite | 97.9
log10 compound concentration (M): -9.81697, supplement / serum: Sodium Formate | 97.9
log10 compound concentration (M): -9.81697, supplement / serum: Vehicle | 94.8
log10 compound concentration (M): -10.2941, supplement / serum: 50 μM Hypoxanthine | 105
log10 compound concentration (M): -10.2941, supplement / serum: 50 μM Thymidine | 93.5
log10 compound concentration (M): -10.2941, supplement / serum: 50 μM Thymidine + 50 μM Hypoxanthine | 103
log10 compound concentration (M): -10.2941, supplement / serum: Hypoxanthine | 91
log10 compound concentration (M): -10.2941, supplement / serum: Hypoxanthine+Sodium Formate | 96.2
log10 compound concentration (M): -10.2941, supplement / serum: Hypoxanthine+Sodium Formate+Thymidine | 100
log10 compound concentration (M): -10.2941, supplement / serum: No metabolite | 94.6
log10 compound concentration (M): -10.2941, supplement / serum: Sodium Formate | 95.9
log10 compound concentration (M): -10.2941, supplement / serum: Vehicle | 87.6
log10 compound concentration (M): -10.7712, supplement / serum: 50 μM Hypoxanthine | 88.2
log10 compound concentration (M): -10.7712, supplement / serum: 50 μM Thymidine | 96.2
log10 compound concentration (M): -10.7712, supplement / serum: 50 μM Thymidine + 50 μM Hypoxanthine | 110
log10 compound concentration (M): -10.7712, supplement / serum: Hypoxanthine | 98.1
log10 compound concentration (M): -10.7712, supplement / serum: Hypoxanthine+Sodium Formate | 92.28
log10 compound concentration (M): -10.7712, supplement / serum: Hypoxanthine+Sodium Formate+Thymidine | 103
log10 compound concentration (M): -10.7712, supplement / serum: No metabolite | 111
log10 compound concentration (M): -10.7712, supplement / serum: Sodium Formate | 95
log10 compound concentration (M): -10.7712, supplement / serum: Vehicle | 95.6
